# Molecular target: human calcitonin receptor (CTR) and RAMP3 (AMY3) in COS-7 cells (Homo sapiens, UniProt O60896+P30988)
# Assay: Amylin Receptor cAMP Assay I
# Assay type: cell-based
# Conditions: values marked *: Amylin Receptor cAMP Assay I; COS-7/AMY3 cells; read-out: Amylin Receptor cAMP Stimulation Activity: EC50
# Description: Amylin Receptor cAMP Assay I
# AMYRs are heterodimers of the class B calcitonin (CT) G-protein-coupled receptor (CTR) and receptor activity-modifying proteins (RAMPs). All three RAMPs can interact with the CTR and form AMY1, AMY2, AMY3 with RAMP1, RAMP2 and RAMP3, respectively. Like other class B1 GPCRs, the CT receptor family is canonically coupled to Gs-mediated cAMP production, and measurement of cAMP accumulation has been the primary assay used to determine peptide selectivity and potency.
# To optimize functional activity directed toward Gas coupling, COS-7 cells were stably transfected with human calcitonin receptor (CTR) and RAMP3, simultaneously. 100× concentration of compound working solutions were prepared (Agilent Technologies Bravo) with 4-fold serial dilution in 384-well Echo LDV plate (Labcyte, Cat #LP-0200). 100 nL/well 100× concentration of compound working solutions were moved to 384-well white low volume plate (Greiner, Cat #784075) using Labcyte ECHO550. 1×10^5 cells/mL COS-7/CTR or COS-7/AMY3 (HD Biosciences) cell suspensions prepared with assay buffer [DPBS containing 0.5 mM IBMX (Sigma, Cat #15879) and 0.1% BSA (GENVIEW, Cat #FA016-100 g)], 10 μL cell suspensions were added to each well of previous generated assay plate which already contains 100 nL compound at 100× concentration using ThermoFisher Multidrop Combi (1000 cells/well). Seal the plate and incubate at 37° C. with 5% CO2 for 30 min.
# After incubation, the cAMP assay signal was generated using cAMP Hi-range Kit (Cisbio). 5 μL cAMP-d2 working solution was added to each well, followed by 5 μL Anti-cAMP antibody-cryptate working solution which was added to each well using ThermoFisher Multidrop Combi. The samples were then incubated at room temperature for 1 hour protected from light. the fluorescence was read at 665 and 615 nm with Reader PerkinElmer EnVision.
# Chain of human calcitonin receptor (CTR) and RAMP3 (AMY3) in COS-7 cells (P30988 25-474): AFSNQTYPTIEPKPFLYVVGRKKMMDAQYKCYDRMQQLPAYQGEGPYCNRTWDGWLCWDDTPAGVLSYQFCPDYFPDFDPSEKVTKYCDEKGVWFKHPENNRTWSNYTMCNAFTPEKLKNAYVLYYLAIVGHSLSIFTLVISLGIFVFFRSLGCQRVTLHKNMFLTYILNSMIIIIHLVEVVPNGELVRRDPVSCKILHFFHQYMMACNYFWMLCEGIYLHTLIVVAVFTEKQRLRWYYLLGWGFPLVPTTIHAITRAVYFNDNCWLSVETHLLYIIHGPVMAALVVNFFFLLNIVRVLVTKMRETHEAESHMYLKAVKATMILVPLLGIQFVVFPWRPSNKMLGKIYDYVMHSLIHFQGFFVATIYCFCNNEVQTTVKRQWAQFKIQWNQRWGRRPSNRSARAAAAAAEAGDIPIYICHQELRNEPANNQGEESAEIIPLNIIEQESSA
# Chain of human calcitonin receptor (CTR) and RAMP3 (AMY3) in COS-7 cells (O60896 24-148): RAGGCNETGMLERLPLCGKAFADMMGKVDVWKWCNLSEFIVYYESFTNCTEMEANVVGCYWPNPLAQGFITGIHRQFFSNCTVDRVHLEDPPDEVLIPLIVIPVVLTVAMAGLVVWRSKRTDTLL
row,EC50,Compound
1,495 nM,"Cc1nnc(-c2c(CCc3ccc(F)cc3)nc(CC(C)C)c(C(N)=O)c2-c2cc3ccccc3s2)o1 [Compound 127, 4-(1-benzothiophen-2-yl)-6-[2-(p-fluorophenyl)ethyl]-2-isobutyl-5-(5-methyl-1,3,4-oxadiazol-2-yl)nicotinamide]"
2,940 nM,"Cc1nnc(-c2c(CCc3ccc(F)cc3)nc(CC(C)C)c(C(N)=O)c2-c2cc3cccc(Br)c3s2)o1 [Compound 129, 4-(7-bromo-1-benzothiophen-2-yl)-6-[2-(p-fluorophenyl)ethyl]-2-isobutyl-5-(5-methyl-1,3,4-oxadiazol-2-yl)nicotinamide]"
3,6.7 nM,"Cc1nnc(-c2c(CCc3ccc(F)cc3)nc(CC(C)C)c(C(N)=O)c2-c2cc3cccc(NCc4ccc(F)c(F)c4)c3s2)o1 [Compound 136, 4-(7-((3,4-difluorobenzyl)amino)benzo[b]thiophen-2-yl)-6-(4-fluorophenethyl)-2-isobutyl-5-(5-methyl-1,3,4-oxadiazol-2-yl)nicotinamide]"
4,1.3 nM,"Cc1nnc(-c2c(CCc3ccc(F)cc3)nc(CC(C)C)c(C(N)=O)c2-c2cc3cccc(N[C@@H]4CCc5ccccc54)c3s2)o1 [Compound 137, (R)-4-(7-((2,3-dihydro-1H-inden-1-yl)amino)benzo[b]thiophen-2-yl)-6-(4-fluorophenethyl)-2-isobutyl-5-(5-methyl-1,3,4-oxadiazol-2-yl)nicotinamide]"
5,2260 nM,"Cc1nnc(-c2c(CCc3ccc(F)cc3)nc(CC(C)C)c(C(N)=O)c2-c2cc3cccc(C#N)c3s2)o1 [Compound 138, 4-(7-cyano-1-benzothiophen-2-yl)-6-[2-(p-fluorophenyl)ethyl]-2-isobutyl-5-(5-methyl-1,3,4-oxadiazol-2-yl)nicotinamide]"
6,9930 nM,"Cc1nnc(-c2c(CCc3ccc(F)cc3)nc(CC(C)C)c(C(N)=O)c2-c2cc3c(N)cccc3s2)o1 [Compound 139, 4-(4-aminobenzo[b]thiophen-2-yl)-6-(4-fluorophenethyl)-2-isobutyl-5-(5-methyl-1,3,4-oxadiazol-2-yl)nicotinamide]"
7,177 nM,"Cc1nnc(-c2c(CCc3ccc(F)cc3)nc(CC(C)C)c(C(N)=O)c2-c2ccc(CN[C@@H]3CCc4ccccc43)s2)o1 [Compound 140, 4-(5-{[(R)-1-indanylamino]methyl}-2-thienyl)-6-[2-(p-fluorophenyl)ethyl]-2-isobutyl-5-(5-methyl-1,3,4-oxadiazol-2-yl)nicotinamide]"
8,1200 nM,Cc1cc(CNc2nccc3cc(-c4c(C(N)=O)c(CC(C)C)nc(CCc5ccc(F)cc5)c4-c4nnc(C)o4)sc23)ccn1 [Compound 156]

# Continued, compound first:
row,Compound,EC50
1,"Cc1nnc(-c2c(CCc3ccc(F)cc3)nc(CC(C)C)c(C(N)=O)c2-c2ccc(C(=O)NCc3ccc(F)c(F)c3)o2)o1 [Compound 128, N-(3,4-difluorophenyl)methyl-5-{5-carbamoyl-2-[2-(p-fluorophenyl)ethyl]-6-isobutyl-3-(5-methyl-1,3,4-oxadiazol-2-yl)-4-pyridyl}-2-furamide]",162 nM
2,"Cc1nnc(-c2c(CCc3ccc(F)cc3)nc(CC(C)C)c(C(N)=O)c2-c2cc3ccnc(NCc4ccc(F)c(F)c4)c3o2)o1 [Compound 130, 4-(7-{[(3,4-difluorophenyl)methyl]amino}-1-oxa-6-aza-2-indenyl)-6-[2-(p-fluorophenyl)ethyl]-2-isobutyl-5-(5-methyl-1,3,4-oxadiazol-2-yl)nicotinamide]",49 nM
3,"Cc1nnc(-c2c(CCc3ccc(F)cc3)nc(CC(C)C)c(C(N)=O)c2-c2cc3ncnc(NCc4ccc(F)c(F)c4)c3s2)o1 [Compound 132, 4-(4-((3,4-difluorobenzyl)amino)thieno[3,2-d]pyrimidin-6-yl)-6-(4-fluorophenethyl)-2-isobutyl-5-(5-methyl-1,3,4-oxadiazol-2-yl)nicotinamide]",2.5 nM
4,"Cc1nnc(-c2c(CCc3ccc(F)cc3)nc(CC(C)C)c(C(N)=O)c2-c2cc3c(NCc4ccc(F)c(F)c4)nccc3s2)o1 [Compound 133, 4-(4-((3,4-difluorobenzyl)amino)thieno[3,2-c]pyridin-2-yl)-6-(4-fluorophenethyl)-2-isobutyl-5-(5-methyl-1,3,4-oxadiazol-2-yl)nicotinamide]",6.9 nM
5,"COCC1CN(c2nccc3cc(-c4c(C(N)=O)c(CC(C)C)nc(CCc5ccc(F)cc5)c4-c4nnc(C)o4)sc23)C1 [Compound 134, 6-(4-fluorophenethyl)-2-isobutyl-4-(7-(3-(methoxymethyl)azetidin-1-yl)thieno[2,3-c]pyridin-2-yl)-5-(5-methyl-1,3,4-oxadiazol-2-yl)nicotinamide]",1160 nM
6,Cc1nnc(-c2c(CCc3ccc(F)cc3)nc(CC(C)C)c(C(N)=O)c2-c2ccc(CNC(=O)c3ccc(F)c(F)c3)s2)o1 [Compound 141],50 nM
7,"Cc1nnc(-c2c(CCc3ccc(F)cc3)nc(CC(C)C)c(C(N)=O)c2-c2ccc3c(c2)CCC3NCc2ccc(F)c(F)c2)o1 (centres unmarked) [Compound 143, 4-(1-{[(3,4-difluorophenyl)methyl]amino}-5-indanyl)-6-[2-(p-fluorophenyl)ethyl]-2-isobutyl-5-(5-methyl-1,3,4-oxadiazol-2-yl)nicotinamide]",374 nM
8,Cc1nnc(-c2c(CCc3ccc(F)cc3)nc(CC(C)C)c(C(N)=O)c2CCOC(=O)NCc2ccc(F)c(F)c2)o1 [Compound 145],6290 nM
9,"Cc1nnc(-c2c(OCc3ccc(F)cc3)nc(CC(C)C)c(C(N)=O)c2-c2ccc(C(=O)NCc3ccc(F)c(F)c3)s2)o1 [Compound 146, 4-[5-[(3,4-difluorophenyl)methylcarbamoyl]-2-thienyl]-6-[(4-fluorophenyl)methoxy]-2-isobutyl-5-(5-methyl-1,3,4-oxadiazol-2-yl)pyridine-3-carboxamide]",973 nM
10,"CC(C)Cc1nc(CCc2ccc(F)cc2)c(-c2nnc(C(C)C)o2)c(-c2ccc(C(=O)NCc3ccc(F)c(F)c3)s2)c1C(N)=O [Compound 147, N-(3,4-difluorophenyl)methyl-5-{5-carbamoyl-2-[2-(p-fluorophenyl)ethyl]-6-isobutyl-3-(5-isopropyl-1,3,4-oxadiazol-2-yl)-4-pyridyl}-2-thenamide]",2.3 nM
11,"CC(C)Cc1nc(CCc2ccc(F)cc2)c(-c2nnc(C(F)(F)F)o2)c(-c2ccc(C(=O)NCc3ccc(F)c(F)c3)s2)c1C(N)=O [Compound 148, N-(3,4-difluorophenyl)methyl-5-{5-carbamoyl-2-[2-(p-fluorophenyl)ethyl]-6-isobutyl-3-[5-(trifluoromethyl)-1,3,4-oxadiazol-2-yl]-4-pyridyl}-2-thenamide]",208 nM
12,"Cc1nnc(-c2c(CCc3ccc(F)cc3)nc(CC(C)C)c(C(N)=O)c2-c2ccc(C(=O)NCc3ccc(F)c(F)c3)s2)s1 [Compound 149, N-(3,4-difluorophenyl)methyl-5-{5-carbamoyl-2-[2-(p-fluorophenyl)ethyl]-6-isobutyl-3-(5-methyl-1,3,4-thiadiazol-2-yl)-4-pyridyl}-2-thenamide]",19.1 nM
13,"Cc1cnc(-c2c(CCc3ccc(F)cc3)nc(CC(C)C)c(C(N)=O)c2-c2ccc(C(=O)NCc3ccc(F)c(F)c3)s2)o1 [Compound 150, N-(3,4-difluorophenyl)methyl-5-{5-carbamoyl-2-[2-(p-fluorophenyl)ethyl]-6-isobutyl-3-(5-methyl-1,3-oxazol-2-yl)-4-pyridyl}-2-thenamide]",3.5 nM
14,"Cc1cc(-c2c(CCc3ccc(F)cc3)nc(CC(C)C)c(C(N)=O)c2-c2ccc(C(=O)NCc3ccc(F)c(F)c3)s2)on1 [Compound 151, N-(3,4-difluorophenyl)methyl-5-{5-carbamoyl-2-[2-(p-fluorophenyl)ethyl]-6-isobutyl-3-(3-methyl-5-isoxazolyl)-4-pyridyl}-2-thenamide]",134 nM
15,"Cc1ncc(-c2c(CCc3ccc(F)cc3)nc(CC(C)C)c(C(N)=O)c2-c2ccc(C(=O)NCc3ccc(F)c(F)c3)s2)o1 [Compound 152, N-(3,4-difluorophenyl)methyl-5-{5-carbamoyl-2-[2-(p-fluorophenyl)ethyl]-6-isobutyl-3-(2-methyl-1,3-oxazol-5-yl)-4-pyridyl}-2-thenamide]",11.5 nM
16,"Cc1ncoc1-c1c(CCc2ccc(F)cc2)nc(CC(C)C)c(C(N)=O)c1-c1ccc(C(=O)NCc2ccc(F)c(F)c2)s1 [Compound 153, N-(3,4-difluorophenyl)methyl-5-{5-carbamoyl-2-[2-(p-fluorophenyl)ethyl]-6-isobutyl-3-(4-methyl-1,3-oxazol-5-yl)-4-pyridyl}-2-thenamide]",12 nM
17,"Cc1nc(-c2c(CCc3ccc(F)cc3)nc(CC(C)C)c(C(N)=O)c2-c2ccc(C(=O)NCc3ccc(F)c(F)c3)s2)no1 [Compound 154, N-(3,4-difluorophenyl)methyl-5-{5-carbamoyl-2-[2-(p-fluorophenyl)ethyl]-6-isobutyl-3-(5-methyl-1,2,4-oxadiazol-3-yl)-4-pyridyl}-2-thenamide]",68.7 nM
18,Cc1nnc(-c2c(CCc3ccc(F)cc3)nc(CC(C)C)c(S(C)(=O)=O)c2-c2ccc(C(=O)NCc3ccc(F)c(F)c3)s2)o1 [Compound 155],> 1000 nM
